Assay results from patent publication US9939427B2, “Method for evaluating the scent performance of perfumes or perfume mixtures” (Symrise AG, priority 2013, dated 2018).
Entries after “also recorded” stand apart in the source; their conditions may differ.

Assays:
Assay type in all cases: cell-based
[1] = tested on: HEK293 cells transfected with all cofactors and pCI plasmids without ORs; test: Ca-imaging of control HEK293 cells without OR; conditions: odorant 200 μM, three times of measuring (Table 4, FIG. 5)
Description: (§1) HEK293 cells were cultivated in Petri dishes (Ø35 mm) as previously described (Benbernou et al. 2007). We grow up HEK293 cells in culture medium containing standard DMEM with 10% heat-inactivated fetal bovine serum, 2 mM L-glutamine, 100 units/ml penicillin, and 100 units/ml streptomycin in a humidified atmosphere (37° C., 5% CO2). After 2-3 days, the transfection process was carried out, whereby the cell culture was 70-80% confluent. The calciumphosphate method was applied to transfect DNA plasmid transiently in HEK293 cells in case of Ca-imaging method.
(§2) Calcium cations and phosphate anions created crystal precipitations coupled with DNA which could invade into the cells through endocytosis. Cells were transiently transfected with plasmid DNA which consists of pCI expression vector and PCR-amplified full-length cDNA of olfactory receptors candidates, and also Gα15, RTP1, Myr-Ric8A, HSC70, and m-Cherry as cofactors. The precipitation could be created after 15-20 min, with dropping the transfection solution on HEK293 cells. Before measuring by Ca-imaging cells were incubated 48-60 hours at 370 C, 5% CO2. Cationic liposome-mediated transfection method was applied to transfect DNA plasmid transiently in HANA3A cells in case of CRE-Luciferase and CRE-SEAP assays.
(§3) Calcium imaging of the transfected HEK293 cells was done by using chambers determinate an inverted microscope (Olympus; IX70) using a 10× objective (CPIanFL N Olympus). Fluorescence emission was determined every 4 s by using a CCD camera (Charge Coupled Device, C9100 Hamamatsu). The capillary tube which was responsible to supply odorants was generated closely above the cells. The columns filled with odorants, DMSO and ATP. Odorants were manually monitored to drop each 4-5 s to transfected cells. Solutions with drop wise form spread on HEK293 cells in 35 mm dishes.
(§4) In experiments, Fura-2 Acetoxymethylester (Fura-2/AM) was applied. The non-polar Fura2/AM is fluorescent but not yet calcium-sensitive. Once diffuses into cell plasma, Fura-2/AM is hydrolyzed to Fura-2 which is calcium-sensitive and functions as Ca2+ chelator. Regardless of the presence of calcium, Fura-2 emits at the wavelength of 510 nm. Once Fura-2 binds to free intracellular Ca2+ in cell plasma, its ratio of excitation at wavelengths of 340 nm and 380 nm is changed and correlated to the amount of intracellular Ca2+. According to this feature, the analysis of 340/380 nm excitation ratio for Fura-2 allows to quantify intracellular calcium levels.
(§5) In preparation for Ca-imaging measurements, transfected HEK293 cells were added 3 it Fura2/AM (3 μM) and incubated 30-45 min at 370 C, 5% CO2. After this step, experiments were carried out in a dark condition (Fura-2 is light-sensitive). After the incubation, medium of cell culture was replaced with 2 ml Ringer's solution.
(§6) Odorants were freshly prepared with DMSO as 1 M stocks solutions. Six mixtures (200 μM each chemical) were applied to cells sequentially (20 s each mixture/30 s Ringer). Those ORs tested with single odorants that had generated a response to odorant mixture group previously. Odorants were prepared in 100-200 μM concentration.
(§7) Ringer's solution was used for washing cells between measuring by two different odorants. Positive response was determined by the timing of the response, the strength of the response (more than twofold higher than the noise amplitude of the baseline), and the shape of the response curve (sharp rise in curve with gradual recovery). The typical shape of response curves was established by observing responses to repeated stimulation with 200 μM of odorants. After testing with single odorants at 100 μM, stimulating odorants were often retested at 200 μM concentrations. To confirm the result of every receptor that produced a significant response curves, the experiment was repeated for twelve times. Finally, cells were exposed to ATP (0.25 mM) which could activate P2Y receptor channel and induce Ca2+ influx into cells. […]

OR2L8 [2] = molecular target: T1, OR2L8 (Homo sapiens, UniProt Q8NGY9); test: CRE-luciferase assay, OR2L8 in HANA3A cells; conditions: 50 μM, 100 μM and 150 μM; normalized to DMSO
T1 construct: specific primers, which amplify the complete open reading frame; expressed in transfected cells; host or cells: HEK293
T1 sequence (Q8NGY9 1-312): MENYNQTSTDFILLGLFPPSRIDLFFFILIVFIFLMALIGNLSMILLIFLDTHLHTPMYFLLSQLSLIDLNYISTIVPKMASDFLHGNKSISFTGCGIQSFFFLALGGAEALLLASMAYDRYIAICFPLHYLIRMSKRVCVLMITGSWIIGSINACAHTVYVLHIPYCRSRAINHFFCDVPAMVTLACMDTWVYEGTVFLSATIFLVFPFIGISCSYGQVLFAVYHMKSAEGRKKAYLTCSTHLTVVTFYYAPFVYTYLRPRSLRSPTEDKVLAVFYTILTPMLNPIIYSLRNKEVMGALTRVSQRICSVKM
Description: as §2, with “assays. […]” for “assays.”
ORs responded by Ca-imaging with seven separate odorant mixtures formed from 66 odorants. […] Transfected HANA3A cells on poly-D-lysine-coated 96 well plates are ready for stimulation after 24 h. […] Measuring by plate reader (Luminometer). • 6. […] Measuring by plate reader (Luminometer). • 8. According to manufacturer's protocols for measuring luciferase and renilla activities, calculate normalized luciferase activity with using the formula (Ln-Lmin)/(Lmax-Lmin), where Ln is the luminescence of firefly in response to the odorant, L min is the minimum luciferase value on a plate, and L max is the maximum luciferase value on plate. […]

OR4K5 = molecular target: T2, OR4K5 (Homo sapiens, UniProt Q8NGD3); test: Ca-imaging of OR4K5-transfected HEK293 cells; design: key to OR4K5 responded to odorant: ▪: 18 olfactory receptors responded to 32 odorants in related with specific anosmia
T2 construct: specific primers, which amplify the complete open reading frame; expressed in transfected cells; host or cells: HEK293
T2 sequence (Q8NGD3 1-323): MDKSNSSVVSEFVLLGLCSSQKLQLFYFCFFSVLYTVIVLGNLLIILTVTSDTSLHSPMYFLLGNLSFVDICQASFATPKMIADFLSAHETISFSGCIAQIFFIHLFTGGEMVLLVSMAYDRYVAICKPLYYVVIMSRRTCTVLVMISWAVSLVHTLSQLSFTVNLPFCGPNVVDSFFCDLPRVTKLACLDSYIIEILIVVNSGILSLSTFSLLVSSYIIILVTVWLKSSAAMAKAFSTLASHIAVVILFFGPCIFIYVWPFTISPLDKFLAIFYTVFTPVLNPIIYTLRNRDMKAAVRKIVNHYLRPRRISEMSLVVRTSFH
Description: as §1
as §2, with “Cationic liposome-mediated transfection method was applied to transfect DNA plasmid transiently in HANA3A cells in case of CRE-Luciferase and CRE-SEAP assays.” left out
Calcium imaging of the transfected HEK293 cells was done by using chambers determinate an inverted microscope (Olympus; IX70) using a 10× objective (CPIanFL N Olympus). Fluorescence emission was determined every 4 s by using a CCD camera (Charge Coupled Device, C9100 Hamamatsu). […] Odorants were manually monitored to drop each 4-5 s to transfected cells. […]
In experiments, Fura-2 Acetoxymethylester (Fura-2/AM) was applied. […] According to this feature, the analysis of 340/380 nm excitation ratio for Fura-2 allows to quantify intracellular calcium levels. […]
Ringer's solution was used for washing cells between measuring by two different odorants. Positive response was determined by the timing of the response, the strength of the response (more than twofold higher than the noise amplitude of the baseline), and the shape of the response curve (sharp rise in curve with gradual recovery). […]

OR2L8 [3] = molecular target: T1, OR2L8; test: Ca-imaging of OR2L8-transfected HEK293 cells; design: key to OR2L8 responded to odorant: ▪: 18 olfactory receptors responded to 32 odorants in related with specific anosmia
Description: as §1, §2, §3, §4, §5, §6, §7

## Ysamber K [Yasamber K]
[1]
  Number of cell responses, Control: 2
OR2L8 [2]
  CRE-luciferase (cAMP assay) response of OR2L8: weak response
OR4K5; HEK293 cells, individual odorant 200 μM, significant response p<0.05
  OR4K5 responded to odorant: ▪
OR4K5; single odorants 200 μM
  Response of OR4K5 to odorant, in words: detected
OR2L8 [3]; Ca-imaging, HEK293 cells, individual odorant 200 μM, significant response p<0.05
  OR2L8 responded to odorant: ▪
OR2L8 [3]; Ca-imaging, single odorants 200 μM
  Response of OR2L8 to odorant, in words: Ca2+ concentration increased; also recorded: detected
OR2L8 [3]; odorant 200 μM, approximately 2000 transfected cells in three times of measuring (Table 4, FIG. 5)
  Number of cell responses, Experiment (OR2L8): 10
